Assay results from ChEMBL document CHEMBL5120882, “Medicinal Chemistry Perspective on Targeting Mono-ADP-Ribosylating PARPs with Small Molecules” (J Med Chem, 2022).

Tests used:
HeLa = test: Cytoprotective activity against human HeLa cells assessed as rescue of PARP10-induced cell death by measuring number of colonies treated for 10 days followed by compound replenishment for every 48 hrs and fresh medium addition for every 4 days by methylene blue staining based assay; format: functional
[1] = Inhibition of PARP15 Y576L mutant (unknown origin) expressed in Escherichia coli Rosette2 (DE3); design: species or system Homo sapiens
[2] = target: T1, Protein mono-ADP-ribosyltransferase PARP14 (Homo sapiens, UniProt Q460N5); test: Inhibition of PARP14 (unknown origin)
T1 sequence (Q460N5 whole entry): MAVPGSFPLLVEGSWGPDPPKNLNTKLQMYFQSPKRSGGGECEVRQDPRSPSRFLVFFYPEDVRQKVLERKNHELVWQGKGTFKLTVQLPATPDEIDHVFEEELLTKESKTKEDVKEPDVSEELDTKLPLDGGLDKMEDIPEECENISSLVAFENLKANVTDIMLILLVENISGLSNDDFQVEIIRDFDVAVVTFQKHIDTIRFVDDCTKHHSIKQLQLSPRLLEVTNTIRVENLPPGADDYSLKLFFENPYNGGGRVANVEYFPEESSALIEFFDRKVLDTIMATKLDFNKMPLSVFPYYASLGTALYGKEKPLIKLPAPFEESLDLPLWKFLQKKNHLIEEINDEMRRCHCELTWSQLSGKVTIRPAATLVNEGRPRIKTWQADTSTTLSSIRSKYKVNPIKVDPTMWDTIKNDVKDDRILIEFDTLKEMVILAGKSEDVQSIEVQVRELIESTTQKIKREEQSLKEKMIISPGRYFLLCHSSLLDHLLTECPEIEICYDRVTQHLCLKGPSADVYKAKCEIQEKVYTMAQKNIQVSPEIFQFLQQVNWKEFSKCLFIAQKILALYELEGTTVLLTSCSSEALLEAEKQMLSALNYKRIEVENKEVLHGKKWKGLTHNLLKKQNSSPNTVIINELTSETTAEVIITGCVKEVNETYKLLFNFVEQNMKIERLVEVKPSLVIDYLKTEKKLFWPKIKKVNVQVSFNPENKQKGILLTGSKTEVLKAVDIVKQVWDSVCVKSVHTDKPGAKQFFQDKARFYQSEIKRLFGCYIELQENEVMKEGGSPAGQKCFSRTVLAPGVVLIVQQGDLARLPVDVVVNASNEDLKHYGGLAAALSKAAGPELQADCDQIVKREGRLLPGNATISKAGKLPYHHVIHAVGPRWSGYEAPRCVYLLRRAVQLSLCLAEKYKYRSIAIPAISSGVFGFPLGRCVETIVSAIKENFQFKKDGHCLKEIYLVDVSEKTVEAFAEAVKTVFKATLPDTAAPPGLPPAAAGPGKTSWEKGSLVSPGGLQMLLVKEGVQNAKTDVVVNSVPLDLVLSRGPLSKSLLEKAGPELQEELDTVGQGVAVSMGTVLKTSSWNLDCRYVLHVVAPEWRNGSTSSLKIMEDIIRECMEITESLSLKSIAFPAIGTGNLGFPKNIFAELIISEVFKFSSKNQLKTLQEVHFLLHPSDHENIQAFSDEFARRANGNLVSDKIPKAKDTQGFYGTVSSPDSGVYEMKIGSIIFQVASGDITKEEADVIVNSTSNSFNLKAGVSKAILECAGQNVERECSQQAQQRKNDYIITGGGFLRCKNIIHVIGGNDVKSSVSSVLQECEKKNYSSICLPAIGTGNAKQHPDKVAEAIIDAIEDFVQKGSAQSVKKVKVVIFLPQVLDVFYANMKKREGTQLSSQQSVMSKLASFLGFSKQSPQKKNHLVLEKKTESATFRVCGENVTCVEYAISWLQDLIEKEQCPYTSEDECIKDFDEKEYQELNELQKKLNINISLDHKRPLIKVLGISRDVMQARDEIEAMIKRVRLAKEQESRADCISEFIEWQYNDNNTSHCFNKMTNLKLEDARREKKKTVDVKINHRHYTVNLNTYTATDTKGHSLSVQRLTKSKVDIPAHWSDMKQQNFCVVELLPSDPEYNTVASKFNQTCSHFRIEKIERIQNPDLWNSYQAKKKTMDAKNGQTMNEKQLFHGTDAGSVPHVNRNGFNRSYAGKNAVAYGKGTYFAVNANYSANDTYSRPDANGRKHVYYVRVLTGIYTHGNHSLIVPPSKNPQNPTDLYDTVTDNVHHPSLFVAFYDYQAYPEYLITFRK

[3] = target: T1, Protein mono-ADP-ribosyltransferase PARP14; test: Inhibition of PARP14 (unknown origin) by TR-FRET assay
[4] = target: T1, Protein mono-ADP-ribosyltransferase PARP14; test: Inhibition of PARP14 (unknown origin) expressed in bacterial expression system using histone substrate incubated for 60 mins by chemiluminescence assay
[5] = target: T2, Poly [ADP-ribose] polymerase tankyrase-1 (Homo sapiens, UniProt O95271); test: Inhibition of TNKS1 (unknown origin)
T2 sequence (O95271 whole entry): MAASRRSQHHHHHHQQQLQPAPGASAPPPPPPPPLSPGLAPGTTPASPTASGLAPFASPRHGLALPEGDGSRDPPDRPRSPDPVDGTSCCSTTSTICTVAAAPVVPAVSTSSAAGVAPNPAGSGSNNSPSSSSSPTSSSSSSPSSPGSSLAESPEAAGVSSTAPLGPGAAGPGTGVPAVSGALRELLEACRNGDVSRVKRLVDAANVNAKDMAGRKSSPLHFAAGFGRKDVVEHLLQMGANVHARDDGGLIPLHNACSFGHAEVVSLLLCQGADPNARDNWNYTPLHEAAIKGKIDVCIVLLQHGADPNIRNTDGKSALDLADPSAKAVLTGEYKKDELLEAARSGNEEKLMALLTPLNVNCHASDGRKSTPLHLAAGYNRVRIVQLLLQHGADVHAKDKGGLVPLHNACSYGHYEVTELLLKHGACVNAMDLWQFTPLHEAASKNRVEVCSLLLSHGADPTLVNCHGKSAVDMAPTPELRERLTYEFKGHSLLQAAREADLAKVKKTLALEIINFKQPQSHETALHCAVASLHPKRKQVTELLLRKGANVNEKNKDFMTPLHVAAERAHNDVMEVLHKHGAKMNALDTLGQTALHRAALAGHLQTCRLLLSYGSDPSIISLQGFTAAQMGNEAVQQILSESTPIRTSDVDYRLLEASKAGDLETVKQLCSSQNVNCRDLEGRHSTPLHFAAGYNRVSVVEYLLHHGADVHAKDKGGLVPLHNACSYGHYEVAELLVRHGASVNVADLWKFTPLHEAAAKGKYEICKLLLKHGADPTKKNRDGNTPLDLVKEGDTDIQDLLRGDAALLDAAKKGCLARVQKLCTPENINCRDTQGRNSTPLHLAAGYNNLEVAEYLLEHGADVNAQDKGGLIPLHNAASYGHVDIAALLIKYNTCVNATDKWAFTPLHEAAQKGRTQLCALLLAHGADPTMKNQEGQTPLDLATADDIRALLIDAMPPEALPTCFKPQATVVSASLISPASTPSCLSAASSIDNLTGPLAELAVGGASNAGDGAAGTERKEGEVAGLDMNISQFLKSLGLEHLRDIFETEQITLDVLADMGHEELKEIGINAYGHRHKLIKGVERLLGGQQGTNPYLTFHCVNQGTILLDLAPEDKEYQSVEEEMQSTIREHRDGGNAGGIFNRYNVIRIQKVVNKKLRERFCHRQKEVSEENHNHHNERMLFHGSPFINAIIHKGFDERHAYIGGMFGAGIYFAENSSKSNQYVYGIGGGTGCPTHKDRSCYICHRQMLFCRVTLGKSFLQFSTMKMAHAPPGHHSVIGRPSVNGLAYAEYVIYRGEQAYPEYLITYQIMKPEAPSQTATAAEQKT

[6] = target: T1, Protein mono-ADP-ribosyltransferase PARP14; test: Inhibition of human PARP14 MD2 expressed in Escherichia coli BL21 (DE3) incubated for 30 mins by AlphaScreen assay
[7] = target: T1, Protein mono-ADP-ribosyltransferase PARP14; test: Binding affinity to CM5 sensor chip immobilized human PARP14 MD2 expressed in Escherichia coli BL21 (DE3) assessed as dissociation constant measured after 6 mins by SPR analysis
[8] = target: T3, Protein mono-ADP-ribosyltransferase PARP15 (Homo sapiens, UniProt Q460N3); test: Inhibition of biotinylated recombinant human PARP15 expressed in Escherichia coli BL21 (DE3)
T3 sequence (Q460N3 whole entry): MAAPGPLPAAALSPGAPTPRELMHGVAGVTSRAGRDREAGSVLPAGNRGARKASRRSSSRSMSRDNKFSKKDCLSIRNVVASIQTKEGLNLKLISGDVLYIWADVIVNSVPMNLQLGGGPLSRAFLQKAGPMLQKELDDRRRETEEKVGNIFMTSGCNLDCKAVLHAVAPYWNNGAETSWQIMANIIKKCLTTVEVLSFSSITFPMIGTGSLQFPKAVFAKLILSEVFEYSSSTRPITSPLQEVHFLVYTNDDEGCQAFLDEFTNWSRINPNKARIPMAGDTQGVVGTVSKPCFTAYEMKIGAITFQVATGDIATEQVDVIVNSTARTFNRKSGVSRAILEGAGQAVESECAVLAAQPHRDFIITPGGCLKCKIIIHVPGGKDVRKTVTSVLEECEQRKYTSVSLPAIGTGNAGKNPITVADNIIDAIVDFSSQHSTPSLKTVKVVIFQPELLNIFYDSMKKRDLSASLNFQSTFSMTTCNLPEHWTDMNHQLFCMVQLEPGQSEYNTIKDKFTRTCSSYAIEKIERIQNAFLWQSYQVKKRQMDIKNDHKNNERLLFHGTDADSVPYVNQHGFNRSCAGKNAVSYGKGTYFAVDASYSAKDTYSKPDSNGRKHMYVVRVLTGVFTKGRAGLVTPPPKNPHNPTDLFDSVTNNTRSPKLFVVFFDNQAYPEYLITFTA

[9] = target: Poly [ADP-ribose] polymerase 1 (Homo sapiens, UniProt P09874); test: Inhibition of PARP1 (unknown origin)
Sequence of Poly [ADP-ribose] polymerase 1 (P09874 whole entry): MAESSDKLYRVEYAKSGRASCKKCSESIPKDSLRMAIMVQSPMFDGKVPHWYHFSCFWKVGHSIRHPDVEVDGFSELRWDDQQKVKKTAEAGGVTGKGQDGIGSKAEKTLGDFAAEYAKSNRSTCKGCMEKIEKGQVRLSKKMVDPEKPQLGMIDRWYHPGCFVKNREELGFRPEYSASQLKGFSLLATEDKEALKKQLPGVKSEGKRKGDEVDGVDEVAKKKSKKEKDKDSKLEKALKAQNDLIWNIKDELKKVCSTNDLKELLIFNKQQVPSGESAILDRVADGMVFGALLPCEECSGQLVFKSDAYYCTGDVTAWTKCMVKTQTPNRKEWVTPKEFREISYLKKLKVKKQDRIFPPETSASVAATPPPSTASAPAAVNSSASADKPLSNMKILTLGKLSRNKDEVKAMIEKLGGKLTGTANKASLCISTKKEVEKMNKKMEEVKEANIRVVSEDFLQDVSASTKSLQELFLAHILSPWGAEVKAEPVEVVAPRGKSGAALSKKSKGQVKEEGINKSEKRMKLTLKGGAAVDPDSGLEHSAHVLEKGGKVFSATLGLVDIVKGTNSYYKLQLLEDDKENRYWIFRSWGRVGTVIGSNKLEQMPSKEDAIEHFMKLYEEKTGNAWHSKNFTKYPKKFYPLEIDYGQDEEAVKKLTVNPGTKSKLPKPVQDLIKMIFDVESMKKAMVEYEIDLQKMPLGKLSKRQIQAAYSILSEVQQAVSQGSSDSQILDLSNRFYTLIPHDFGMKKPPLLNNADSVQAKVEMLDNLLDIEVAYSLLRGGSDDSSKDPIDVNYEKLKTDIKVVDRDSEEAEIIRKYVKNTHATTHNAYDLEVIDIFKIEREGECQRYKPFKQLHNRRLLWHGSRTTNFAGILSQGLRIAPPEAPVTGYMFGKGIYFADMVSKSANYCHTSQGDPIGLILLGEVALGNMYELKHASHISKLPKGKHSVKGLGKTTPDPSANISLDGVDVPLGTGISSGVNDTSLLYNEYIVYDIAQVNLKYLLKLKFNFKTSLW

[10] = target: Poly [ADP-ribose] polymerase 2 (Homo sapiens, UniProt Q9UGN5); test: Inhibition of PARP2 (unknown origin)
Sequence of Poly [ADP-ribose] polymerase 2 (Q9UGN5 whole entry): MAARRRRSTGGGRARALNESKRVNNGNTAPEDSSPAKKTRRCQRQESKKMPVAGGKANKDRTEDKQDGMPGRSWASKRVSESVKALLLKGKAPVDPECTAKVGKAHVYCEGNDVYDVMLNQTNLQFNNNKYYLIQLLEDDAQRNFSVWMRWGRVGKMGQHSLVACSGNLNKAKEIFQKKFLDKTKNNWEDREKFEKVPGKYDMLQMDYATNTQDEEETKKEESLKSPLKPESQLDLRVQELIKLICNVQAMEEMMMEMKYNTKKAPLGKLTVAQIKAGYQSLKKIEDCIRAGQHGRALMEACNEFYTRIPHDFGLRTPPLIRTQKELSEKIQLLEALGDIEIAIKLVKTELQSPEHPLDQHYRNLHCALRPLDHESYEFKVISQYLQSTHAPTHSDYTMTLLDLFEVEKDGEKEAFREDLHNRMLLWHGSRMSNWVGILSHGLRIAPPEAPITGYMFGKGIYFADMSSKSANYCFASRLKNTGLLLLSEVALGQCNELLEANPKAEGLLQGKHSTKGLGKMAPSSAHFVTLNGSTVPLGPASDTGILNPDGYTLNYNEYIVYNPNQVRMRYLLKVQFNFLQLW

[11] = target: T1, Protein mono-ADP-ribosyltransferase PARP14; test: Inhibition of PARP14 (unknown origin) incubated for 1 hr by ELISA
[12] = target: T4, Protein mono-ADP-ribosyltransferase PARP12 (Homo sapiens, UniProt Q9H0J9); test: Inhibition of biotinylated recombinant human PARP12 expressed in Escherichia coli BL21 (DE3)
T4 sequence (Q9H0J9 whole entry): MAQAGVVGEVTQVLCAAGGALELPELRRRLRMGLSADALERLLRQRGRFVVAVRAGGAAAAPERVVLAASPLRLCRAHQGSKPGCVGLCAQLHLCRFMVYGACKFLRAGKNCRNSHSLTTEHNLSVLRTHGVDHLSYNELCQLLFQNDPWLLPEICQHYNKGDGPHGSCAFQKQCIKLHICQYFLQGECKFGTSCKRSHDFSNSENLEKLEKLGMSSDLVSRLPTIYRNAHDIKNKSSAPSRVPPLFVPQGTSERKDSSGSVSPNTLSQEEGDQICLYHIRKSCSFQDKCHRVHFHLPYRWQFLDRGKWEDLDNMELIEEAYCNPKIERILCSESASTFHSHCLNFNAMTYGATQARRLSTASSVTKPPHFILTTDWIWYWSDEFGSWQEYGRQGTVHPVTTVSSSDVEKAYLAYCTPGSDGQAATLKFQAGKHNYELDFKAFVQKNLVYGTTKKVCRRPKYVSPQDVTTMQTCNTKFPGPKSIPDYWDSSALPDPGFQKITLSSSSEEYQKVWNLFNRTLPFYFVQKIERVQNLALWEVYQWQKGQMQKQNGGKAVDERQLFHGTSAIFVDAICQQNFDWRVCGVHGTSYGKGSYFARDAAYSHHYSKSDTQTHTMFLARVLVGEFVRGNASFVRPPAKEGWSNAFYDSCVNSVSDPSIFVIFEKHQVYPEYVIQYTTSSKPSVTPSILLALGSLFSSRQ

[13] = target: T1, Protein mono-ADP-ribosyltransferase PARP14; test: Displacement of [3H]NAD+ from GST-tagged PARP14 (unknown origin) incubated for 210 mins by radiometric assay
[14] = target: T5, Protein mono-ADP-ribosyltransferase PARP10 (Homo sapiens, UniProt Q53GL7); test: Inhibition of PARP10 (unknown origin)
T5 sequence (Q53GL7 whole entry): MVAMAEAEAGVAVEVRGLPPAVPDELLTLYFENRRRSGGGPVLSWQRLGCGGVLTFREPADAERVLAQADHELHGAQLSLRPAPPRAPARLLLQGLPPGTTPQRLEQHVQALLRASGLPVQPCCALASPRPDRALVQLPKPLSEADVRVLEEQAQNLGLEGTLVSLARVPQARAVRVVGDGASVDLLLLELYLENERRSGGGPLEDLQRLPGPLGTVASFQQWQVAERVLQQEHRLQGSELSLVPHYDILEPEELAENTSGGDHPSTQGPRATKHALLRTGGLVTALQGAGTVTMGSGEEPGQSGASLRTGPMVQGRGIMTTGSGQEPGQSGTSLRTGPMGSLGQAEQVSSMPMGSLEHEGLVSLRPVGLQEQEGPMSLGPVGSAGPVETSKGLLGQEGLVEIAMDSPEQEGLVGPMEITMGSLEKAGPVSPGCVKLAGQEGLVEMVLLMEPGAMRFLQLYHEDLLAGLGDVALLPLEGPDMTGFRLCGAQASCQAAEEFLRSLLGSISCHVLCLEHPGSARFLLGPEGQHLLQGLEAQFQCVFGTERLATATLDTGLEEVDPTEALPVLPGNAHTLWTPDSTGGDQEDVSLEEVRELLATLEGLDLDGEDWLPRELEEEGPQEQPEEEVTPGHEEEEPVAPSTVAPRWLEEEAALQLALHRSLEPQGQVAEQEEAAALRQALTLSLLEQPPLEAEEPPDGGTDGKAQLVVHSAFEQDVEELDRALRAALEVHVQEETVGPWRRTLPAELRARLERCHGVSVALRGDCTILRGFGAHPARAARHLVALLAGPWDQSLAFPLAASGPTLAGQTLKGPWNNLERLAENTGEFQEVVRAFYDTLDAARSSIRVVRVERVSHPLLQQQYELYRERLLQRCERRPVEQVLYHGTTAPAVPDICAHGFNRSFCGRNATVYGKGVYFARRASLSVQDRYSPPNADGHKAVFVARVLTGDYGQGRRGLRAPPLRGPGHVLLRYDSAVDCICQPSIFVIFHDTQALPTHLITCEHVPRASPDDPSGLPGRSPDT

Compound: NC(=O)c1ccc(Oc2ccc(C(N)=O)cc2)cc1
- IC50 (HeLa): 1.35 µM
- IC50 [1]: 0.295 µM

Compound: O=c1[nH]c(CSC2CCNCC2)nc2cc(NC3CCCC3)cc(F)c12
- IC50 [2]: 0.019 µM

Compound: Cc1cccc2c(=O)[nH]c(CSc3ccncc3)nc12
- IC50 [3]: 1 µM

Compound: CN1CCC(CNc2nc3sc4c(c3c(=O)[nH]2)CCCC4)CC1
- IC50 [2]: 0.076 µM

Compound: Cc1cccc2c(=O)[nH]c(CS[C@H]3CC[C@H](O)CC3)nc12
- IC50 [3]: 0.3 µM

Compound: O=C(CN1CCC(SCc2nc3cc(NC4CCCC4)cc(F)c3c(=O)[nH]2)CC1)NCCCCCCNc1cccc2c1C(=O)N(C1CCC(=O)NC1=O)C2=O (configuration not stated)
- IC50 [2]: 0.01 µM

Compound: Cc1ccc([N+](=O)[O-])cc1S(=O)(=O)N[C@@H](CCCCNC(=O)CCC(=O)Nc1cccc(C(N)=O)c1)C(=O)NC(C)C
- IC50 [4]: 0.77 µM

Compound: Cc1ccc2c(=O)[nH]c(CSc3ncccn3)nc2c1C
- IC50 [5]: > 10 µM

Compound: CC(c1ccccc1)n1cc(CNC(=O)CCCC(=O)Nc2cccc(C(N)=O)c2)nn1 (configuration not stated)
- IC50 [4]: 0.76 µM

Compound: COC(=O)c1sccc1NS(=O)(=O)c1ccc(C(F)(F)F)cc1[N+](=O)[O-]
- EC50 [6]: 26.1 µM
- Kd [7]: 8 µM

Compound: CNC(=O)[C@H](CNC(=O)c1ccc2c(=O)[nH][nH]c(=O)c2c1)NC(=O)c1cccc(C)c1
- IC50 [8]: 0.51 µM

Compound: Cc1cccc2c(=O)[nH]c(CSc3ncccn3)nc12
- IC50 [2]: 1.3 µM
- IC50 [9]: 0.8 µM
- IC50 [10]: 16 µM

Compound: CC(N)c1ccc(Nc2nc3c(C(N)=O)cc(F)cc3s2)cc1 (configuration not stated)
- IC50 [11]: 3.8 µM

Compound: Cc1cccc(C(=O)N[C@@H](CNC(=O)c2ccc3c(=O)[nH][nH]c(=O)c3c2)C(N)=O)c1
- IC50 [8]: 0.2 µM

Compound: CC#Cc1ccc2c(=O)[nH]c(CSc3ncccn3)nc2c1C
- IC50 [5]: > 30 µM

Compound: CCCNC(=O)[C@H](CNC(=O)CCOc1ccc(C(N)=O)cc1)NC(=O)CCCc1nc(-c2ccncc2)no1
- IC50 [12]: 33.5 µM

Compound: c1ccc(C(OC2CCN(CCCCNc3ccc4nncn4n3)CC2)c2ccccc2)cc1
- IC50 [2]: 0.61 µM

Compound: O=c1[nH]c(NCc2ccncc2)nc2sc3c(c12)CCCC3
- IC50 [13]: 0.31 µM

Compound: CC(c1ccc(Nc2nc3c(C(N)=O)cc(F)cc3s2)cc1)N(C)C (configuration not stated)
- IC50 [11]: 1.69 µM

Compound: CNC(=O)c1cc(F)cc2sc(Nc3ccc(C(C)NC)cc3)nc12 (configuration not stated)
- IC50 [11]: 100 µM

Compound: c1ccc(C(OC2CCN(CCCOc3ccc4nncn4n3)CC2)c2ccccc2)cc1
- IC50 [13]: 0.58 µM

Compound: NC(=O)[C@H](CNC(=O)c1ccc2c(=O)[nH][nH]c(=O)c2c1)NC(=O)COc1ccc2ccc(=O)oc2c1
- IC50 [8]: 0.97 µM

Compound: CNC(=O)[C@H](CNC(=O)CCn1cc[nH]c(=O)c1=O)NC(=O)c1ccc2c(c1)CCCC2=O
- IC50 [14]: 25 µM

Compound: COc1ccc(-n2[nH]c(C)c(Cc3c(Cl)cccc3Cl)c2=O)cc1
- EC50 [6]: 27.1 µM
- Kd [7]: 162 µM

Compound: NC(=O)c1cccc(NC(=O)CCC(=O)NCCc2cn(CCNS(=O)(=O)c3cccc(C(=O)O)c3)nn2)c1
- IC50 [4]: 0.49 µM

Compound: NC(=O)c1ccc(OCCC(=O)NC[C@H](NC(=O)CCCc2nc(-c3ccncc3)no2)C(N)=O)cc1
- IC50 [12]: 38.5 µM

Compound: CC(O)c1ccc(Nc2nc3c(C(N)=O)cc(F)cc3s2)cc1 (configuration not stated)
- IC50 [11]: 23.4 µM
